Laboratory results as given in ChEMBL document CHEMBL1141584, “Synthesis, biological evaluation and molecular modelling studies of methyleneimidazole substituted biaryls as inhibitors of human 17alpha-hydroxylase-17,20-lyase (CYP17). Part I: Heterocyclic modifications of the core structure” (Bioorg Med Chem, 2008).

Columns and labels:
Rattus norvegicus [1] = assay: Reduction of testosterone level in Wistar rat plasma at 56.02 mg/kg, po after 6 hrs by ELISA relative to pretreatment value; type: functional; set-up: scale not given: the % may be the effect or the level left
Rattus norvegicus [2] = assay: Reduction of testosterone level in Wistar rat plasma at 56.02 mg/kg, po after 1 hr by ELISA relative to pretreatment value; type: functional; set-up: scale not given: the % may be the effect or the level left
Rattus norvegicus [3] = assay: Reduction of testosterone level in Wistar rat plasma at 56.02 mg/kg, po after 2 hrs by ELISA relative to pretreatment value; type: functional; set-up: scale not given: the % may be the effect or the level left
Rattus norvegicus [4] = assay: Reduction of testosterone level in Wistar rat plasma at 56.02 mg/kg, po after 8 hrs by ELISA relative to pretreatment value; type: functional; set-up: scale not given: the % may be the effect or the level left
Rattus norvegicus [5] = assay: Reduction of testosterone level in Wistar rat plasma at 56.02 mg/kg, po after 4 hrs by ELISA relative to pretreatment value; type: functional; set-up: scale not given: the % may be the effect or the level left
CYP2C19 [6] = target: T1, CYP2C19 (Homo sapiens, UniProt P33261); assay: Inhibition of recombinant CYP2C19 at 10 uM; type: ADME
[7] = target: T2, Steroid 17-alpha-hydroxylase/17,20 lyase (Homo sapiens, UniProt P05093); assay: Inhibition of human CYP17 expressed in Escherichia coli co-expressed with NADPH-P450 reductase at 2 uM
T2 sequence (P05093 whole entry): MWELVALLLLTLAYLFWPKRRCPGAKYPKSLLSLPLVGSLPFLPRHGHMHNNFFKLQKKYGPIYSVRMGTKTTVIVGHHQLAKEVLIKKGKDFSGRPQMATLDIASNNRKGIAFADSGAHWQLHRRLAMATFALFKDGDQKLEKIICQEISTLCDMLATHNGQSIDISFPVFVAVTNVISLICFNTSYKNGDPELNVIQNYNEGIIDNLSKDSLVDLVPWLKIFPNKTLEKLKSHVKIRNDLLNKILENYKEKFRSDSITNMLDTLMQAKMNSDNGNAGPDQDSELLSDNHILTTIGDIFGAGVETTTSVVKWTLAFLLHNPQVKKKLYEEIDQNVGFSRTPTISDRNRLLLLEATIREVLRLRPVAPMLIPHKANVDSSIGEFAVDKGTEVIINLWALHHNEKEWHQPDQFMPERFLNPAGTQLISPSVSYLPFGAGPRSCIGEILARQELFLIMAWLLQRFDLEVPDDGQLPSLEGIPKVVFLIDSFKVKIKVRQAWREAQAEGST

CYP2C19 [8] = target: T1, CYP2C19; assay: Inhibition of recombinant CYP2C19 at 1 uM; type: ADME
CYP1A2 [9] = target: T3, CYP1A2 (Homo sapiens, UniProt P05177); assay: Inhibition of recombinant CYP1A2 at 1 uM; type: ADME
T3 sequence (P05177 whole entry): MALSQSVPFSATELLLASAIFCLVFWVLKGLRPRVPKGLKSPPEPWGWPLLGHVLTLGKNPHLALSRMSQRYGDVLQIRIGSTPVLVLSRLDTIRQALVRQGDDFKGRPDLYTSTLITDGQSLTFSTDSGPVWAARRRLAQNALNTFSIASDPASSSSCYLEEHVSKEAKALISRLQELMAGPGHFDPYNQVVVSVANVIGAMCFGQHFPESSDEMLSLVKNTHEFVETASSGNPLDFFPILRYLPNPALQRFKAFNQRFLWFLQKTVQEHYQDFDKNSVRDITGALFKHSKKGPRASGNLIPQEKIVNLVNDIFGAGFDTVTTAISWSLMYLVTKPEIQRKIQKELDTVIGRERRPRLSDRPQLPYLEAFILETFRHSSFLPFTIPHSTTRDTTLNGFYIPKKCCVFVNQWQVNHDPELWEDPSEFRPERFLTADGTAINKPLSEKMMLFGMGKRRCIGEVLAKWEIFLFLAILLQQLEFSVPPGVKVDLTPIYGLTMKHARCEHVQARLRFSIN

[10] = target: T2, Steroid 17-alpha-hydroxylase/17,20 lyase; assay: Inhibition of human CYP17 expressed in Escherichia coli co-expressed with NADPH-P450 reductase at 0.2 uM
CYP1A2 [11] = target: T3, CYP1A2; assay: Inhibition of recombinant CYP1A2 at 10 uM; type: ADME
CYP2C9 [12] = target: T4, CYP2C9 (Homo sapiens, UniProt P11712); assay: Inhibition of recombinant CYP2C9 at 1 uM; type: ADME
CYP2C9 [13] = target: T4, CYP2C9; assay: Inhibition of recombinant CYP2C9 at 10 uM; type: ADME
CYP2B6 [14] = target: T5, CYP2B6 (Homo sapiens, UniProt P20813); assay: Inhibition of recombinant CYP2B6 at 10 uM; type: ADME
T5 sequence (P20813 whole entry): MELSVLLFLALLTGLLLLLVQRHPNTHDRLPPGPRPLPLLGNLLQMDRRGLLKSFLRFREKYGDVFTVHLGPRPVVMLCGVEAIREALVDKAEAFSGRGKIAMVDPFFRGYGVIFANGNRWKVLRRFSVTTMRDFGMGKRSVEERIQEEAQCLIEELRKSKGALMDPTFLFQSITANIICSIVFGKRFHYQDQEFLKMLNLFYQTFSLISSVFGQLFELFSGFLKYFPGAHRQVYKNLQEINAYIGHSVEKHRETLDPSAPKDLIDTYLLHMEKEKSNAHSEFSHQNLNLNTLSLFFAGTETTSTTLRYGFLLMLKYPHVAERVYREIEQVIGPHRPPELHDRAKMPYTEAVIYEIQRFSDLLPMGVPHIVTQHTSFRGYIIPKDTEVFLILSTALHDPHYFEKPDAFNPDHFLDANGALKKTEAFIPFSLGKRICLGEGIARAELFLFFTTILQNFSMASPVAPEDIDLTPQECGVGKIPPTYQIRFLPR

CYP2B6 [15] = target: T5, CYP2B6; assay: Inhibition of recombinant CYP2B6 at 1 uM; type: ADME
[16] = target: T2, Steroid 17-alpha-hydroxylase/17,20 lyase; assay: Inhibition of human CYP17 expressed in Escherichia coli co-expressed with NADPH-P450 reductase at 1 uM

T1 sequence (P33261 whole entry): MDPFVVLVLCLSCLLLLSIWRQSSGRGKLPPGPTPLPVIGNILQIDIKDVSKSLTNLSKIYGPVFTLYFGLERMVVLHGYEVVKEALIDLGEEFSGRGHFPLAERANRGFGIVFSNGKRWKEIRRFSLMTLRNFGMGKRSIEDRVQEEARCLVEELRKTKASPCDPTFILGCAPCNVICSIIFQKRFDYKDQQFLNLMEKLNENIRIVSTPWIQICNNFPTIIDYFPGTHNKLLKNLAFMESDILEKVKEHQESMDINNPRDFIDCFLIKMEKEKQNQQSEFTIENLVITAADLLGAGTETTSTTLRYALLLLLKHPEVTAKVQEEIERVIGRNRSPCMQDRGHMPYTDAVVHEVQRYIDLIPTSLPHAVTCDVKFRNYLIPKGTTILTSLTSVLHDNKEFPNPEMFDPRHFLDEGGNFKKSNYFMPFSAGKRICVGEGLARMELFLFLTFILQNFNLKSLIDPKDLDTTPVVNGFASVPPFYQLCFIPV
T4 sequence (P11712 whole entry): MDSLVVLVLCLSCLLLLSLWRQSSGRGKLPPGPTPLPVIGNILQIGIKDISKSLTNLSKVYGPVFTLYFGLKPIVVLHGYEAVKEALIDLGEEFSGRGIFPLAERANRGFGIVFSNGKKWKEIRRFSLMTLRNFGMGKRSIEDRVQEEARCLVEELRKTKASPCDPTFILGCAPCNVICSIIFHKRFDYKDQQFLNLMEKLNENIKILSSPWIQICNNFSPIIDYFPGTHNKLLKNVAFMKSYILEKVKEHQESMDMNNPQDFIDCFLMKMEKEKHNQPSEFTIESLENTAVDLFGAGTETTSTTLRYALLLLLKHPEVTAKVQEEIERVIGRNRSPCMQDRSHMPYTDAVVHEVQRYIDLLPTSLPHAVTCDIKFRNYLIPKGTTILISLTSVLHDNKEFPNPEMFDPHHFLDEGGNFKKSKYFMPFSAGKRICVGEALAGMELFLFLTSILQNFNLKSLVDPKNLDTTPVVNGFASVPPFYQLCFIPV

Row | inhibition at 2 µM [7] | inhibition at 1 µM (CYP2C19 [8]) | inhibition at 1 µM (CYP1A2 [9]) | inhibition at 0.2 µM [10] | inhibition at 10 µM (CYP1A2 [11]) | inhibition at 1 µM (CYP2C9 [12]) | inhibition at 10 µM (CYP2C9 [13]) | Compound | Activity (Rattus norvegicus [1]) | Activity (Rattus norvegicus [2]) | Activity (Rattus norvegicus [3]) | Activity (Rattus norvegicus [4]) | Activity (Rattus norvegicus [5]) | inhibition at 10 µM (CYP2C19 [6]) | inhibition at 10 µM (CYP2B6 [14]) | inhibition at 1 µM (CYP2B6 [15]) | inhibition at 1 µM [16]
1 | – | – | – | – | – | – | – | CC(=O)O[C@H]1CC[C@@]2(C)C(=CC[C@@H]3[C@@H]2CC[C@]2(C)C(c4cccnc4)=CC[C@@H]32)C1 [ABIRATERONE ACETATE] | 43.3% | 92.5% | 44% | 35.6% | 43.5% | – | – | – | –
2 | 68% | 95% | 93% | 17% | 96% | 94% | 100% | CCC(c1cc(-c2ccc(F)c(F)c2)cs1)n1ccnc1 (configuration not stated) | – | – | – | – | – | 97% | – | – | –
3 | – | – | – | – | – | – | – | CC(=O)N1CCN(c2ccc(OCC3COC(Cn4ccnc4)(c4ccc(Cl)cc4Cl)O3)cc2)CC1 (configuration not stated) [KETOCONAZOLE] | – | – | – | – | – | 79% | 57% | 11% | 19%
